This passage reports GI50, TGI and inhibition of growth results from ChEMBL document CHEMBL3046164, “A facile synthesis of some 3-cyano-1,4,6-trisubstituted-2(1H)-pyridinones and their biological evaluation as anticancer agents” (2011).

What all share (format): functional
One test relates to T47D. Briefly: Cytotoxicity against Homo sapiens (human) T47D cells after 48 hr by SRB assay. In general terms: The SRB assay estimates cell density from bound dye.
A further test has as its system UACC-62. Briefly: Cytotoxicity against Homo sapiens (human) UACC62 cells after 48 hr by SRB assay. The note with it: UACC-62, 48 h.
Another test deals with IGROV-1. Kind of test: Cytotoxicity against Homo sapiens (human) IGROV1 cells after 48 hr by SRB assay. Particulars: IGROV-1, 48 h.
Another test concerns OVCAR-3. Briefly: Cytotoxicity against Homo sapiens (human) OVCAR3 cells after 48 hr by SRB assay. The note with it: OVCAR-3, 48 h.
Test [1] has as its system CCRF-CEM. Kind of test: Cytotoxicity against Homo sapiens (human) CCRF-CEM cells after 48 hr by SRB assay.
For another test, the system named is MDA-MB-231. Kind of test: Cytotoxicity against Homo sapiens (human) MDA-MB-231 cells after 48 hr by SRB assay. The note with it: MDA-MB-231, 48 h.
Test [2] concerns HOP-92. Kind of test: Cytotoxicity against Homo sapiens (human) HOP92 cells after 48 hr by SRB assay. Particulars: HOP-92, 48 h.
The next test has as its system HL-60(TB). Kind of test: Cytotoxicity against Homo sapiens (human) HL-60(TB) cells after 48 hr by SRB assay. Particulars: HL-60, 48 h.
Another test deals with OVCAR-4. Briefly: Cytotoxicity against Homo sapiens (human) OVCAR4 cells after 48 hr by SRB assay. The note with it: OVCAR-4, 48 h.
The next test deals with SF-268. Briefly: Cytotoxicity against Homo sapiens (human) SF268 cells after 48 hr by SRB assay. The note with it: SF-268, 48 h.
A further test concerns HOP-62. Briefly: Cytotoxicity against Homo sapiens (human) HOP62 cells after 48 hr by SRB assay. Particulars: HOP-62, 48 h.
The next test relates to EKVX. Briefly: Cytotoxicity against Homo sapiens (human) EKVX cells after 48 hr by SRB assay.
The test system of the next test is HCC 2998. Briefly: Cytotoxicity against Homo sapiens (human) HCC2998 cells after 48 hr by SRB assay. The note with it: HCC 2998, 48 h.
The next test concerns SR. Briefly: Cytotoxicity against Homo sapiens (human) SR cells after 48 hr by SRB assay.
A further test relates to SNB-75. Briefly: Cytotoxicity against Homo sapiens (human) SNB75 cells after 48 hr by SRB assay. The note with it: SNB-75, 48 h.
Test [3] relates to RPMI-8226. Kind of test: Cytotoxicity against Homo sapiens (human) RPMI8226 cells after 48 hr by SRB assay. The note with it: Homo sapiens, RPMI-8226, 48 h.
The test system of the next test is A498. Briefly: Cytotoxicity against Homo sapiens (human) A498 cells after 48 hr by SRB assay. The note with it: A498, 48 h.
The next test concerns BT-549. Briefly: Cytotoxicity against Homo sapiens (human) BT549 cells after 48 hr by SRB assay. The note with it: BT-549, 48 h.
In a further test the test system is UO-31. Kind of test: Cytotoxicity against Homo sapiens (human) UO31 cells after 48 hr by SRB assay. The note with it: UO-31, 48 h.
For the next test, the system named is SF-539. Briefly: Cytotoxicity against Homo sapiens (human) SF539 cells after 48 hr by SRB assay. Particulars: SF-539, 48 h.
In test [4] the test system is HOP-92. Briefly: Growth inhibition of Homo sapiens (human) HOP92 cells at 10 uM after 48 hr by SRB assay. Particulars: HOP-92, 48 h, read-out: GI.
Another test deals with K562. Kind of test: Growth inhibition of Homo sapiens (human) K562 cells at 10 uM after 48 hr by SRB assay. Particulars: K562, 48 h, read-out: GI.
For test [5], the system named is CCRF-CEM. Briefly: Growth inhibition of Homo sapiens (human) CCRF-CEM cells at 10 uM after 48 hr by SRB assay. The note with it: read-out: GI.
Test [6] has as its system RPMI-8226. Briefly: Growth inhibition of Homo sapiens (human) RPMI8226 cells at 10 uM after 48 hr by SRB assay. Particulars: RPMI-8226, 48 h, read-out: GI.
The next test deals with PC-3. Kind of test: Growth inhibition of Homo sapiens (human) PC3 cells at 10 uM after 48 hr by SRB assay. The note with it: PC-3, 48 h, read-out: GI.

One may read the GI50 as the concentration at which growth is held to half of that of the control. Low readings indicate greater sensitivity of the cells, high ones lower sensitivity of the cells. As for `Cn1cccc1-c1cc(-c2ccc(Br)cc2)[nH]c(=O)c1C#N`, the GI50 in the test with T47D is more than 100 µM; in the test on UACC-62 it was 48.9 µM; in the test on IGROV-1, 77.6 µM; in the test with OVCAR-3, 85.1 µM; in the test on CCRF-CEM [1] it was 47.3 µM; with MDA-MB-231, 83.2 µM. Moreover, the GI50 with HOP-92 [2] was more than 100 µM; in the test with HL-60(TB), more than 100 µM; in the test with OVCAR-4 it was more than 100 µM; with SF-268, more than 100 µM; with HOP-62 it was 34.7 µM; with EKVX, 27.5 µM. Also, the 50% growth inhibitory concentration (GI50) is more than 100 µM with HCC 2998; more than 100 µM in the test on SR; 25.7 µM with SNB-75; 57.5 µM in the test with RPMI-8226 [3]; 54.9 µM in the test on A498; 85.1 µM in the test on BT-549. Moreover, the GI50 worked out at 69.2 µM in the test on UO-31 and 89.1 µM with SF-539.
In general, TGI refers to the concentration at which net growth stops. With `COc1ccc(-c2cc(-c3cccn3C)c(C#N)c(=O)[nH]2)cc1OC`, the concentration for 50% growth inhibition (GI50) in the test on T47D is 34.7 µM; in the test with UACC-62, 66.1 µM; with IGROV-1 it was 91.2 µM; with OVCAR-3, more than 100 µM; in the test on CCRF-CEM [1] it was 5.01 µM; with MDA-MB-231, more than 100 µM. For the same compound, the GI50 in the test on HOP-92 [2] is more than 100 µM; in the test with HL-60(TB), more than 100 µM; in the test on OVCAR-4 it was more than 100 µM; in the test with SF-268, more than 100 µM; with HOP-62 it was 30.9 µM; in the test with EKVX, 0.05 µM. The 50% growth inhibitory concentration (GI50) was 89.1 µM with HCC 2998; 0.48 µM with SR; 23.9 µM in the test with SNB-75; 22.9 µM in the test with RPMI-8226 [3]; 56.2 µM in the test on A498; more than 100 µM in the test with BT-549. Also, the GI50 in the test with UO-31 stood at 85.1 µM; in the test with SF-539, 67.6 µM. The compound further had a TGI in the test with EKVX of 9.77 µM.
As for `COc1ccc(-c2cc(-c3cccn3C)c(C#N)c(=O)n2N=O)cc1OC`, the inhibition of growth at 10 µM in the test with HOP-92 [4] was determined as 26.8%; in the test with K562, 26.6%.
Turning to `COc1ccc(-c2cc(-c3cccs3)n3c(C)nnc3c2C#N)cc1`, the inhibition of growth at 10 µM in the test on HOP-92 [4] turned out to be 23.5%.
For `COc1ccc(-c2cc(-c3cccs3)[nH]c(=O)c2C#N)cc1`, the concentration for 50% growth inhibition (GI50) is more than 100 µM in the test on T47D; more than 100 µM in the test with UACC-62; more than 100 µM in the test with IGROV-1; more than 100 µM with OVCAR-3; 23.4 µM in the test on CCRF-CEM [1]; more than 100 µM in the test with MDA-MB-231. Also, the GI50 with HOP-92 [2] was more than 100 µM; with HL-60(TB) it was 45.7 µM; with OVCAR-4, 69.2 µM; in the test with SF-268, more than 100 µM; in the test on HOP-62, more than 100 µM; in the test on EKVX it was more than 100 µM. For the same compound, the 50% growth inhibitory concentration (GI50) in the test on HCC 2998 is more than 100 µM; in the test on SR, 60.2 µM; in the test on SNB-75 it was 39.8 µM; in the test on RPMI-8226 [3] it was 22.4 µM; in the test on A498, more than 100 µM; in the test with BT-549, more than 100 µM. The GI50 in the test on UO-31 and with SF-539 was more than 100 µM in each case.
As to `Cc1nnc2c(C#N)c(-c3cccn3C)cc(-c3ccc(Br)cc3)n12`, the inhibition of growth at 10 µM with HOP-92 [4] was found to be 30%; in the test with CCRF-CEM [5] it was 66%; in the test on RPMI-8226 [6], 43.2%; in the test on PC-3, 24%.
Consider `COc1ccc(-c2cc(-c3cccs3)n(N=O)c(=O)c2C#N)cc1`, for which the inhibition of growth at 10 µM in the test with HOP-92 [4] was determined as 36.2%; in the test on CCRF-CEM [5], 42%; in the test with K562 it was 65.8%.
As for `COc1ccc(-c2cc(-c3cccn3C)c(C#N)c(=O)n2C(C)=O)cc1OC`, the inhibition of growth at 10 µM in the test on K562 was 25.3%.
Take `CC(=O)n1c(-c2ccc(Br)cc2)cc(-c2cccn2C)c(C#N)c1=O`: the inhibition of growth at 10 µM with HOP-92 [4] worked out at 24.6%.
On to `COc1ccc(-c2cc(-c3cccn3C)c(C#N)c(=O)n2Cc2ccccc2)cc1OC`, for which, in the test on RPMI-8226 [6], the inhibition of growth at 10 µM was found to be 64.1%.
Take `Cn1cccc1-c1cc(-c2ccc(Br)cc2)n(Cc2ccccc2)c(=O)c1C#N`: the inhibition of growth at 10 µM was determined as 44.7% with HOP-92 [4]; 39.5% in the test on CCRF-CEM [5]; 38.2% with RPMI-8226 [6]; 45.4% in the test with K562; 32.5% in the test with PC-3.
